Several values for one entry are separate records, joined by “and”; a condition that tells them apart may be missing. Equal entries are not always repeated. sCy5 = sulfo-Cy5
System: WT BMDC (CD11c+)
Test: Glycan SLP uptake by flow cytometry (phagocytic index), WT BMDC
Assay type: cell-based, mouse
Conditions: 1 h incubation, sCy5 signal by flow cytometry
Method: 2.5 x 10^5 WT, MR^−/− BMDC or BMDM were seeded after treatment with polarizing stimulus as described below in a 96 well v-bottom plate (Sarstedt, 82.1583001). The next day, Glycan SLP probes were added to the cells at 250 nM and incubated for 1 h at 37 °C. Active uptake was halted by addition of ice-cold PBS and washed twice with PBS + 2% FCS + 2 mM EDTA (300 rcf, 5 min., rt). Cells were stained with a selection of the following stains and antibodies: Zombie Yellow (Biolegend, 423103, 1:500), TruStain FcX (Biolegend, cat no 101319, 1:100), CD11c - eFluor450 (clone: N418, eBioscience, cat no 48-0114-82, dilution 1:200), CD206-AF488 or AF647 (clone: MR5D3, Biorad, MCA2235A488T, 1:20), CD86-PerCP (Biolegend, cat no 105025, clone GL-1, 1:200), F4/80-APC-Cy7 (Biolegend, cat no 123117, clone BM8, dilution 1:400), MHC-II-AF488 (Biolegend, cat no 107615, clone M5/114.15.2, dilution 1:1000) for 30 min. on ice. Then cells were washed twice with PBS + 2% FCS + 2 mM EDTA and acquired on Guava EasyCyte 12HT. For BMDM uptake and characterization, an identical procedure was followed but acquisition was performed on Sony ID7000 spectral flow cytometer. Analysis was performed using FlowJo v8. Phagocytic index (PI) was calculated according to equation 1. Statistical analysis and plotting were performed using GraphPad Prism V10.1 PI=%sCy5^+cellsxMFIsCy5^+cells−%sCy5^−cellsxMFIsCy5^−cells

Substance	uptake (phagocytic index) by BMDC
Ac-Lys(triMan)-Gly-Lys(triMan)-TEG-Asp-Glu-Val-Ser-Gly-Leu-Glu-Gln-Leu-Glu-Ser-Ile-Ile-Asn-Phe-Glu-Lys-Leu-Ala-Ala-Ala-Ala-Ala-Lys(sCy5)-NH2 (DEVSGLEQLESIINFEKLAAAAAK; two Lys(triMan), TEG, sulfo-Cy5, C-amide; printed: Asp-Glu-Val-Ser-Gly-Leu-Glu-Gln-Leu-Glu-Ser-Ile-Ile-Asn-Phe-Glu-Lys-Leu-Ala-Ala-Ala-Ala-Ala-Lys) [2 Tri(5), bivalent trimannosylated OVA SLP with sulfo-Cy5]	most effectively taken up

Same assay, conditions: Fig 4d source data; BMDC incubated 1 h with probe, CD11c+ cells; per experiment, two technical replicates

Substance	phagocytic index
Ac-Lys(Man)-Gly-Lys(Man)-TEG-Asp-Glu-Val-Ser-Gly-Leu-Glu-Gln-Leu-Glu-Ser-Ile-Ile-Asn-Phe-Glu-Lys-Leu-Ala-Ala-Ala-Ala-Ala-Lys(sCy5)-NH2 ({Ac-K(Man)-Gly-K(Man)-TEG}-DEVSGLEQLESIINFEKLAAAAAK(sCy5)-NH2) [2 Mono(2), bivalent monomannosylated OVA SLP with sulfo-Cy5]	468.878 and 326.94 and 575.997 and 867.184 and 474 and -18
Ac-Lys(Man)-Lys(Man)-Lys(Man)-Lys(Man)-Lys(Man)-Lys(Man)-TEG-Asp-Glu-Val-Ser-Gly-Leu-Glu-Gln-Leu-Glu-Ser-Ile-Ile-Asn-Phe-Glu-Lys-Leu-Ala-Ala-Ala-Ala-Ala-Lys(sCy5)-NH2 ({Ac-K(Man)-K(Man)-K(Man)-K(Man)-K(Man)-K(Man)-TEG}-DEVSGLEQLESIINFEKLAAAAAK(sCy5)-NH2) [6 Mono(3), hexavalent monomannosylated OVA SLP with sulfo-Cy5]	351.961 and 267.849 and 647.297 and 867.13 and 676 and 415
Ac-Lys(Man)-TEG-Asp-Glu-Val-Ser-Gly-Leu-Glu-Gln-Leu-Glu-Ser-Ile-Ile-Asn-Phe-Glu-Lys-Leu-Ala-Ala-Ala-Ala-Ala-Lys(sCy5)-NH2 ({Ac-K(Man)-TEG}-DEVSGLEQLESIINFEKLAAAAAK(sCy5)-NH2) [1 Mono(1), monovalent monomannosylated OVA SLP with sulfo-Cy5]	18.2246 and 7.8718 and 19.8915 and 23.9776 and -43 and 24
Ac-Lys(triMan)-Gly-Lys(triMan)-TEG-Asp-Glu-Val-Ser-Gly-Leu-Glu-Gln-Leu-Glu-Ser-Ile-Ile-Asn-Phe-Glu-Lys-Leu-Ala-Ala-Ala-Ala-Ala-Lys(sCy5)-NH2 (DEVSGLEQLESIINFEKLAAAAAK; two Lys(triMan), TEG, sulfo-Cy5, C-amide; printed: Asp-Glu-Val-Ser-Gly-Leu-Glu-Gln-Leu-Glu-Ser-Ile-Ile-Asn-Phe-Glu-Lys-Leu-Ala-Ala-Ala-Ala-Ala-Lys) [2 Tri(5), bivalent trimannosylated OVA SLP with sulfo-Cy5]	739.67 and 711.569 and 1725.6 and 1909.99 and 2022 and 1371
Ac-Lys(triMan)-Lys(triMan)-Lys(triMan)-Lys(triMan)-Lys(triMan)-Lys(triMan)-TEG-Asp-Glu-Val-Ser-Gly-Leu-Glu-Gln-Leu-Glu-Ser-Ile-Ile-Asn-Phe-Glu-Lys-Leu-Ala-Ala-Ala-Ala-Ala-Lys(sCy5)-NH2 (DEVSGLEQLESIINFEKLAAAAAK; six Lys(triMan), TEG, sulfo-Cy5, C-amide; printed: Asp-Glu-Val-Ser-Gly-Leu-Glu-Gln-Leu-Glu-Ser-Ile-Ile-Asn-Phe-Glu-Lys-Leu-Ala-Ala-Ala-Ala-Ala-Lys) [6 Tri(6), hexavalent trimannosylated OVA SLP with sulfo-Cy5]	418.118 and 415.333 and 1097.76 and 913.574 and 294 and 434
Ac-Lys(triMan)-TEG-Asp-Glu-Val-Ser-Gly-Leu-Glu-Gln-Leu-Glu-Ser-Ile-Ile-Asn-Phe-Glu-Lys-Leu-Ala-Ala-Ala-Ala-Ala-Lys(sCy5)-NH2 (DEVSGLEQLESIINFEKLAAAAAK; Ac-Lys(triMan)-TEG, sulfo-Cy5, C-amide; printed: Asp-Glu-Val-Ser-Gly-Leu-Glu-Gln-Leu-Glu-Ser-Ile-Ile-Asn-Phe-Glu-Lys-Leu-Ala-Ala-Ala-Ala-Ala-Lys) [1 Tri(4), monovalent trimannosylated OVA SLP with sulfo-Cy5]	866.48 and 744.547 and 660.373 and 1168.46 and 1459 and 1224

Reference: publication PMC12830989, “Subcellular glycan-mannose receptor binding kinetics correlate with myeloid cell function” (Nature Communications, 2025)
